The source of these data is publication PMC6104605, “Discovery of new chromen-4-one derivatives as telomerase inhibitors through regulating expression of dyskerin” (Journal of Enzyme Inhibition and Medicinal Chemistry, 2018).

Data set [1] deals with human cervical cancer cell Hela. As to the kind of experiment: MTT anticancer assay, Hela. The conditions noted are these: read-out: IC50 Hela. It counts as cell-based. The procedure:
(§1) The MTT was purchased from Sigma. Cell Cycle Analysis Kit and Apoptosis Analysis Kit were purchased from Bestbio (China). Mitochondrial membrane potential assay kit with JC-1 was purchased from Beyotime (China). All the materials were used as received without further purification unless noted specifically. The cell culture was maintained on DMEM medium (Hyclone, US) supplemented with 10% fetal bovine serum (Sijiqing, China), 100 U/mL penicillin and 100 µg/mL streptomycin in 25-cm^2 culture flasks at 37 °C humidified atmosphere with 5% CO2. Drugs were dissolved in DMSO and filtered through 0.22-µm pore-size filter units before addition to cell line appropriate media. When tumor cells were grown to log phase, diluting to 5 × 10^4 cells mL^−1 with the complete medium, 100 µL of the obtained cell suspension was added to each well of 96-well culture plates. The subsequent incubation was performed at 37 °C, 5% CO2 atmosphere for 48 h before subjecting to anti-proliferation assessment. After 48-h exposure period, 20 µL of PBS containing 5 mg·mL^−1 of MTT was added to each well. After 4 h, the medium was replaced by 150 µL DMSO to dissolve the purple formazan crystals produced. […] The data represented the mean of three experiments in triplicate and were expressed as means ± SD.
(In general: Formazan colour is commonly taken as a measure of viable cells.)

The test system of data set [2] is human liver cancer cell SMMC-7721. Kind of data set: MTT anticancer assay, SMMC-7721. The conditions noted are these: 48 h exposure, mean ± SD. It counts as cell-based. The protocol:
(§2) The MTT was purchased from Sigma. Cell Cycle Analysis Kit and Apoptosis Analysis Kit were purchased from Bestbio (China). Mitochondrial membrane potential assay kit with JC-1 was purchased from Beyotime (China). All the materials were used as received without further purification unless noted specifically. The cell culture was maintained on DMEM medium (Hyclone, US) supplemented with 10% fetal bovine serum (Sijiqing, China), 100 U/mL penicillin and 100 µg/mL streptomycin in 25-cm^2 culture flasks at 37 °C humidified atmosphere with 5% CO2. Drugs were dissolved in DMSO and filtered through 0.22-µm pore-size filter units before addition to cell line appropriate media. When tumor cells were grown to log phase, diluting to 5 × 10^4 cells mL^−1 with the complete medium, 100 µL of the obtained cell suspension was added to each well of 96-well culture plates. The subsequent incubation was performed at 37 °C, 5% CO2 atmosphere for 48 h before subjecting to anti-proliferation assessment. After 48-h exposure period, 20 µL of PBS containing 5 mg·mL^−1 of MTT was added to each well. After 4 h, the medium was replaced by 150 µL DMSO to dissolve the purple formazan crystals produced. The absorbance at 492 nm of each well was measured on an ELISA plate reader. The data represented the mean of three experiments in triplicate and were expressed as means ± SD. The IC50 value was defined as the concentration at which 50% of the cells could survive. The following human tumor cell lines were used in the assay: human gastric cancer cells SGC-7901, human liver cancer cell SMMC-7721 and HepG2, human cervical cancer cell Hela and human glioma cell U87.

Data set [3] concerns human gastric cancer cells SGC-7901. As to the kind of experiment: MTT anticancer assay, SGC-7901. It counts as cell-based. The settings on record: for IC50: Homo sapiens, SGC-7901, MTT, 48 h exposure, mean ± SD. The procedure: as §1
The next data set concerns human glioma cell U87. Kind of data set: MTT anticancer assay, U87. It counts as cell-based. The settings on record: 48 h exposure, mean ± SD, dash = footnote d 'None'. The protocol: as §2
The test system of data set [4] is human liver cancer cell HepG2. Kind of data set: MTT anticancer assay, HepG2. It counts as cell-based. The conditions noted are these: 48 h exposure, mean ± SD, dash = footnote d 'None'. The procedure:
as §2

Data set [5] can be described thus: Octanol water partition coefficient, shake flask. In kind it is physicochemical. The conditions noted are these: octanol/PBS (pH 7.4), pH 7.4, shake flask, octanol/PBS pH 7.4, 37 °C, read-out: Log p (octanole water partition coefficient). The procedure: Octanole water partition coefficients was measured by the method of shake flask with slight modification. The aqueous phase was replaced by PBS (pH 7.4). First, the phase of octanol and the aqueous were saturated with each other. Then, the mixture containing title compounds was shaken at 37 °C. After 24 h, the mixture was centrifuged at 4000 rpm for 30 min, followed by the measured with ultraviolet spectrophotometer. At last, logP values were calculated.

Data set [6] relates to human normal gastric mucosa cell (GES-1). Kind of data set: Proliferative inhibition of human normal cell (MTT). In kind it is cell-based. An excerpt:
In order to determine the selective cell toxicity of selected compounds. We subsequently conducted a proliferative inhibition assay with human normal gastric mucosa cell (GES-1).

The target of another data set is T1, telomerase (Homo sapiens, UniProt O14746).
T1 construct: endogenous in cells; host or cells: SGC-7901
Kind of data set: Telomerase activity assay (TRAP-PCR-ELISA). It counts as biochemical. The conditions noted are these: SGC-7901 cells extracts, 24-h treatment, mean ± SD. The procedure:
Inhibit of telomerase activity was tested using the TRAP-PCR-ELISA assay. In detail, the SGC-7901 cells were firstly maintained in DMEM medium (GIBCO, New York) supplemented with 10% fetal bovineserum (GIBCO, NewYork), streptomycin (0.1 mg/mL) and penicillin (100 IU/mL) at 37 °C in a humidified atmosphere containing 5% CO2. After trypsinisation, 5 × 10^4 cultured cells in logarithmic growth were seeded into T25 flasks (Corning, New York) and cultured to allow to adherence. The cells were then incubated with Staurosporine (Santa Cruz, Santa Cruz) and the drugs with a series of concentration as 60, 20, 6.67, 2.22, 0.74, 0.25 and 0.082 l g/mL, respectively. After 24-h treatment, the cells were harvested by cell scraper orderly following by washed once with PBS. The cells were lysed in 150 µL RIPA cell lysis buffer (Santa Cruz, Santa Cruz) and incubated on ice for 30 min. The cellular supernatants were obtained via centrifugation at 12,000 g for 20 min at 4 °C and stored at −80 °C. The TRAP-PCR-ELISA assay was performed using a telomerase detection kit (Roche, Basel, Switzerland) according to the manufacturer’s protocol. In brief, 2 µL of cell extracts were mixed with 48 µL TRAP reaction mixtures. PCR was then initiated at 94 °C, 120 s for predenaturation and performed using 35 cycles each consisting of 94 °C for 30 s, 50 °C for 30 s, 72 °C for 90 s. Then 20 µL of PCR products were hybridised to a digoxigenin (DIG)-labeled telomeric repeat specific detection probe. And the PCR products were immobilised via the biotin-labeled primer to a streptavidin-coated microtiter plate subsequently. The immobilised DNA fragment were detected with a peroxidase-conjugated anti-DIG antibody and visualised following addition of the stop regent. The microtitre plate was assessed on TECAN Infinite M200 microplate reader (Mannedorf, Switzerland) at a wavelength of 490 nm, and the final value were presented as mean ± SD.
On the technique in general: An ELISA detects its analyte on a solid surface through an enzyme-linked reagent.

Where [7] appears, read: GES1, MTT, human normal gastric mucosa cell, read-out: GES-1 IC50.

Like-named read-outs stand apart in the source and are kept apart here.

T1 sequence (O14746 whole entry): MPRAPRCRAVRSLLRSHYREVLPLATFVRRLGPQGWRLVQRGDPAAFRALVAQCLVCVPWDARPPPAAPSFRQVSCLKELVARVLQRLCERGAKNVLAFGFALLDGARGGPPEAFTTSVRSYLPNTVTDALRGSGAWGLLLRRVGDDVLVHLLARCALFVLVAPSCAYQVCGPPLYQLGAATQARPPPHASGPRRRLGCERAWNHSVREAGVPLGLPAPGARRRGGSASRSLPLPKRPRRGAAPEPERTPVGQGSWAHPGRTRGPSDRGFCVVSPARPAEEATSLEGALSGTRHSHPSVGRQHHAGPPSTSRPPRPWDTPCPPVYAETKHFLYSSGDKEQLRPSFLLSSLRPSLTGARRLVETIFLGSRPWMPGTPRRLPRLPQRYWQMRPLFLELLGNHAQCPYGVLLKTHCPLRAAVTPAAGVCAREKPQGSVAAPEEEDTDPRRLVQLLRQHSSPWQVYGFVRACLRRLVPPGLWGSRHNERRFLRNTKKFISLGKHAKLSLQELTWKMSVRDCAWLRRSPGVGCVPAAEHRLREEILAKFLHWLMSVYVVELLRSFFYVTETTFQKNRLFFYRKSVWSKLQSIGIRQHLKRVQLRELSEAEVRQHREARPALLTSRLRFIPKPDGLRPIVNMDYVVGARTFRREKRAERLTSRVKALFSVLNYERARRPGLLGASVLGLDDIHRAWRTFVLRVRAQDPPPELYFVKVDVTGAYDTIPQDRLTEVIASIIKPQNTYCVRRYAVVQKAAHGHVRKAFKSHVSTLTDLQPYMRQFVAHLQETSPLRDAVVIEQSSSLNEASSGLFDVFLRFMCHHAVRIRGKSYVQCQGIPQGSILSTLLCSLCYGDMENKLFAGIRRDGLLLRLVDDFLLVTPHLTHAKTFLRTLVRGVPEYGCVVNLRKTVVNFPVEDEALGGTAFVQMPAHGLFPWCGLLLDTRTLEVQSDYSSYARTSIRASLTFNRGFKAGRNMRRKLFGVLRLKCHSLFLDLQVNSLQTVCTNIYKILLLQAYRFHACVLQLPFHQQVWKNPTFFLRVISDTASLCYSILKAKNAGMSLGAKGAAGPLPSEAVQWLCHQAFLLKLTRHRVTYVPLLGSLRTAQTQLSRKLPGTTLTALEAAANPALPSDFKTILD
T1 sequence (O60832 whole entry partner): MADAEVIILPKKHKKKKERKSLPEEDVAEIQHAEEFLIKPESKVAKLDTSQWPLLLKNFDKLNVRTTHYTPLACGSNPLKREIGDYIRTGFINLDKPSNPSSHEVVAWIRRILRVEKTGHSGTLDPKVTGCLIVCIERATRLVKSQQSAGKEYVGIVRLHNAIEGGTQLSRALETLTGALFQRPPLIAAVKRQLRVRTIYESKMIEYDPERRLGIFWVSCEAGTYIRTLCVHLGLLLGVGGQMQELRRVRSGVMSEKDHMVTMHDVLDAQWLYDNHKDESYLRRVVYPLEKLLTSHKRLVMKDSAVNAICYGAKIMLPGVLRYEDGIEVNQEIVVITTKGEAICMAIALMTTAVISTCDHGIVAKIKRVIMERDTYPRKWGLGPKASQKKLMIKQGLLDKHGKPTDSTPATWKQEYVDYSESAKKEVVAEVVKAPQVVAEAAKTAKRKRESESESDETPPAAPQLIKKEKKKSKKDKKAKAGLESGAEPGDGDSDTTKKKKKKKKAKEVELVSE
T1 sequence (Q9NX24 whole entry partner): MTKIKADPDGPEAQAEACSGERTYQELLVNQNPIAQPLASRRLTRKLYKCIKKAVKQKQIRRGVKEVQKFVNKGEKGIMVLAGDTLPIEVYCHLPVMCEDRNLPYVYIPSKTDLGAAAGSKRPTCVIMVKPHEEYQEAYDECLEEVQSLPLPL
T1 sequence (Q9NPE3 whole entry partner): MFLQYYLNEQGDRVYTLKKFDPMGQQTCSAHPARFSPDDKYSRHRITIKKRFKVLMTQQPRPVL
T1 sequence (Q9NY12 whole entry partner): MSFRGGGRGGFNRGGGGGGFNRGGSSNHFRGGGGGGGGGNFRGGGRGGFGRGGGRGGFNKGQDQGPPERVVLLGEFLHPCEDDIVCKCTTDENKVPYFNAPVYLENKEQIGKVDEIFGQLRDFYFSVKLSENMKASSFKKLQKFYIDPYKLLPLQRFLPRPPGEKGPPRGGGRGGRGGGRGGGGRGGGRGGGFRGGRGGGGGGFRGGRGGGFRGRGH

Take `COc1cc(OC)c2c(=O)c(OCCCCN3CCN(C(=O)c4ccc([N+](=O)[O-])cc4)CC3)c(-c3cc(OC)c(OC)c(OC)c3)oc2c1` [Compound 5g]: the IC50 – broadly, the midpoint of a concentration-inhibition curve – was 17 ± 1.51 µM in data set [1] (MTT, 48 h exposure, mean ± SD); 23.2 ± 1.83 µM in data set [2]; 10.5 ± 1.01 µM in data set [3]; 21.6 ± 0.9 µM with human glioma cell U87; 40.5 ± 1.95 µM in data set [4].

Turning to `COc1cc(OC)c2c(=O)c(OCCCCN3CCN(C(=O)c4ccc(Cl)cc4)CC3)c(-c3cc(OC)c(OC)c(OC)c3)oc2c1` [Compound 5h], the IC50 in data set [1] (MTT, 48 h exposure, mean ± SD) was 22.4 ± 0.87 µM; in data set [2] it was 14.1 ± 1.27 µM; in data set [3] it was 9.22 ± 1 µM; in the data set on human glioma cell U87 it was 25.6 ± 1.4 µM; in data set [4], 35.3 ± 1.97 µM.

As for `COc1cc(OC)c2c(=O)c(OCCCCN3CCN(C(=O)c4cc(Cl)ccc4[N+](=O)[O-])CC3)c(-c3cc(OC)c(OC)c(OC)c3)oc2c1` [Compound 5l], the IC50 stood at 3.8 ± 0.31 µM in data set [1] (MTT, 48 h exposure, mean ± SD); 5.2 ± 0.87 µM in data set [2]; 5.81 ± 1.01 µM in data set [3]; 16.2 ± 1.45 µM in the data set with human glioma cell U87; 29.1 ± 1.75 µM in data set [4]. In addition, the “activity against SGC-7901 cells (in words)” value (shortened to “activity”) in data set [3] is recorded as “good activity”. The logP at 24 h in data set [5] is 4.82.

Regarding `COc1cc(OC)c2c(=O)c(OCCCCN3CCN(C(=O)c4cccc(F)c4)CC3)c(-c3cc(OC)c(OC)c(OC)c3)oc2c1` [Compound 5d], the IC50 is 31.4 ± 1.73 µM in data set [1] (MTT, 48 h exposure, mean ± SD); 32 ± 1.53 µM in data set [2]; 18.5 ± 0.89 µM in data set [3]; greater than 60 µM in the data set with human glioma cell U87; 35.5 ± 1.65 µM in data set [4].

Take `COc1cc(OC)c2c(=O)c(OCCCCN3CCN(C(=O)c4ccccc4)CC3)c(-c3cc(OC)c(OC)c(OC)c3)oc2c1` [Compound 5j]: the IC50 in data set [1] (MTT, 48 h exposure, mean ± SD) is 8.3 ± 0.3 µM; in data set [2] it was 7.29 ± 0.82 µM; in data set [3], 7.56 ± 1.01 µM; in the data set on human glioma cell U87, 20.3 ± 1.25 µM; in data set [4] it was greater than 60 µM. The “activity” value in data set [3] was “good activity”. In addition, the logP at 24 h in data set [5] was determined as 3.01.

Regarding `COc1cc(OC)c2c(=O)c(OCCCCN3CCN(C(=O)c4ccc(C(F)(F)F)cc4)CC3)c(-c3cc(OC)c(OC)c(OC)c3)oc2c1` [Compound 5f], the IC50 was determined as 14.4 ± 0.8 µM in data set [1] (MTT, 48 h exposure, mean ± SD); 24.2 ± 1.44 µM in data set [2]; 6.97 ± 0.85 µM in data set [3]; 18 ± 0.66 µM with human glioma cell U87; 37.4 ± 1.69 µM in data set [4]; 2980 ± 550 µM in data set [6] (setting [7]). Further, the “activity” value in data set [3] is on record as “good activity”. In data set [5], the logP at 24 h stood at 3.35.

On to `COc1cc(OC)c2c(=O)c(OCCCCN3CCN(C(=O)c4ccc(F)cc4F)CC3)c(-c3cc(OC)c(OC)c(OC)c3)oc2c1` [Compound 5a], for which the IC50 in data set [1] (MTT, 48 h exposure, mean ± SD) amounted to 25.5 ± 1.02 µM; in data set [2], 28 ± 0.98 µM; in data set [3] it was 16.6 ± 1.32 µM; in the data set on human glioma cell U87, 16.6 ± 1.95 µM; in data set [4], 33.4 ± 1.56 µM; in data set [6] (setting [7]), 4180 ± 600 µM. Further, the IC50 at telomerase turned out to be 11.3 ± 0.99 µM.

As to `COc1cc(OC)c2c(=O)c(OCCCCN3CCN(C(=O)c4cc([N+](=O)[O-])cc([N+](=O)[O-])c4)CC3)c(-c3cc(OC)c(OC)c(OC)c3)oc2c1` [Compound 5k], the IC50 is 2.94 ± 0.25 µM in data set [1] (MTT, 48 h exposure, mean ± SD); 4.01 ± 0.38 µM in data set [2]; 5.12 ± 0.5 µM in data set [3]; 8.14 ± 0.22 µM with human glioma cell U87; 21.2 ± 1.53 µM in data set [4]; 2550 ± 380 µM in data set [6] (Homo sapiens, GES1, read-out: GES-1 IC50). Besides, on telomerase, the IC50 is 1.44 ± 0.28 µM. Further, the “activity” value in data set [3] was “good activity”.

For the molecule `COc1cccc2c1C(=O)c1c(O)c3c(c(O)c1C2=O)C[C@@](O)(C(=O)CO)C[C@@H]3O[C@H]1C[C@H](N)[C@H](O)[C@H](C)O1` [ADM, doxorubicin, reference compound], the IC50 in data set [1] (48 h) worked out at 0.21 ± 0.03 µM; in data set [2], 0.81 ± 0.06 µM; in data set [3], 0.98 ± 0.27 µM; in the data set with human glioma cell U87, 2.24 ± 0.12 µM; in data set [4] it was 2.87 ± 0.21 µM.

Regarding `COc1cc(OC)c2c(=O)c(OCCCCN3CCN(C(=O)c4c(F)cccc4Cl)CC3)c(-c3cc(OC)c(OC)c(OC)c3)oc2c1` [Compound 5c], the IC50 in data set [1] (MTT, 48 h exposure, mean ± SD) worked out at 9.77 ± 0.62 µM; in data set [2], 15.9 ± 1.01 µM; in data set [3], 9.31 ± 1.05 µM; in the data set with human glioma cell U87 it was 25.4 ± 1.55 µM; in data set [4] it was 28 ± 1.84 µM.

In the case of `COc1cc(OC)c2c(=O)c(OCCCCN3CCN(C(=O)c4c(F)cccc4F)CC3)c(-c3cc(OC)c(OC)c(OC)c3)oc2c1` [Compound 5b], the IC50 in data set [1] (MTT, 48 h exposure, mean ± SD) is 11.3 ± 0.85 µM; in data set [2] it was 17 ± 0.99 µM; in data set [3], 10.5 ± 1.08 µM; in the data set with human glioma cell U87, greater than 60 µM; in data set [4] it was 23.4 ± 1.23 µM.

Consider `COc1cc(OC)c2c(=O)c(OCCCCN3CCN(C(=O)c4ccccc4[N+](=O)[O-])CC3)c(-c3cc(OC)c(OC)c(OC)c3)oc2c1` [Compound 5e], for which the IC50 was 25.1 ± 1.5 µM in data set [1] (MTT, 48 h exposure, mean ± SD); 31.3 ± 1.63 µM in data set [2]; 13.2 ± 0.88 µM in data set [3]; greater than 60 µM with human glioma cell U87; greater than 60 µM in data set [4]; 10000 ± 1220 µM in data set [6] (setting [7]). The IC50 on telomerase came to 13.3 ± 1.25 µM.
